Patent EP4782453A1 (Beyang Therapeutics Co., Ltd., priority 2023, dated 2025)
Read-outs that look alike come from different tables or passages of the source.

Biological target: T1, Menin-MLL (Homo sapiens, UniProt O00255)
T1 construct: His-Menin (M1-L615 end); purchased BIORTUS BP9210
T1 sequence (O00255 1-615 isoform O00255-1): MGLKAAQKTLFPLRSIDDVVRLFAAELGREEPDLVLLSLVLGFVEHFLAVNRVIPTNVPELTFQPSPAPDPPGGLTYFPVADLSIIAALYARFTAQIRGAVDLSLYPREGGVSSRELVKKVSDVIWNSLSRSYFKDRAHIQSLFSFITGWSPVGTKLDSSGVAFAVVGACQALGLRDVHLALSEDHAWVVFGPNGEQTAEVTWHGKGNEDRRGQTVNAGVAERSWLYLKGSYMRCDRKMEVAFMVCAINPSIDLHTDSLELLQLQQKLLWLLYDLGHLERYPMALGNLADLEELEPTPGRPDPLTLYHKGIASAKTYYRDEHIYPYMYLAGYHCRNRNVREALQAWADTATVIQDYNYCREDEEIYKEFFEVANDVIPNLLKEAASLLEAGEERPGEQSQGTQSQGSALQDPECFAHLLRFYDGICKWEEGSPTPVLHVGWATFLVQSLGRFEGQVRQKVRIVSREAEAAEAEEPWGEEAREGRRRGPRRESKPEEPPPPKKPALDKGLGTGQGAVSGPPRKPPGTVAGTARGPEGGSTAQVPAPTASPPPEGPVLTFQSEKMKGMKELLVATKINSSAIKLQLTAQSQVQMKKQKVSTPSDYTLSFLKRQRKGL
Assay: Inhibitory activity against Menin-MLL binding (fluorescence polarization)
Conditions: 150 nM His-Menin, 15 nM FITC-MLL, 25°C for 60 min
Outline: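 Fluorescence polarization competition: compound and 150 nM His-tagged menin (residues M1-L615) sit 15 min at 25 °C in pH 7.5 HEPES buffer with NaCl, DTT and BSA; 15 nM FITC-labelled MLL peptide then binds for 60 min. IC50 fitted sigmoidally from mP values, duplicate wells.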

[1] = fluorescence polarization, read-out: Menin-MLL IC50
[2] = Menin-MLL IC50, fluorescence polarization

SMILES | IC50 [1] | IC50 [2]
CC(=O)N1CCC([C@@H](C)N2CC(c3cc(-c4ccc(F)cc4C(=O)N4CCOC[C@H]4C)c4c(F)nc(C)n4c3)C2)CC1 [Example 257-1, 1-{4-[(1R)-1-[3-(1-fluoro-8-{4-fluoro-2-[(3R)-3-methylmorpholin-4-carbonyl]phenyl}-3-methylimidazo[1,5-a]pyridin-6-yl)azacyclobutan-1-yl]ethyl]piperidin-1-yl}ethan-1-one] | 131 nM | –
COC1(C(=O)N2CCC(CN3CC(c4cc(-c5ccc(F)cc5C(=O)N5CCOC[C@H]5C)c5c(F)nc(C)n5c4)C3)CC2)CC1 [Example 262] | 257 nM | –
Cc1nc(F)c2c(-c3ccc(F)cc3C(=O)N3CCOCC3C)cc(C3CN(C(C)C4CCN(C(=O)CC#N)CC4)C3)cn12 (centres unmarked) [Example 263-1] | 74 nM | –
CNC(=O)N1CCC([C@@H](C)N2CC(c3cc(-c4ccc(F)cc4C(=O)N4CCOC[C@H]4C)c4c(F)nc(C)n4c3)C2)CC1 [Example 264-1] | 116 nM | –
CCOC(=O)N1CCC(CN2CC(c3cc(-c4ccc(F)cc4C(=O)N4CCOC[C@H]4C)c4c(F)nc(C)n4c3)C2)CC1 [Example 270] | 24 nM | –
Cc1nc(F)c2c(-c3ccc(F)cc3C(=O)N3CCOC[C@H]3C)cc(C3CN(CC4CCN(S(C)(=O)=O)CC4)C3)cn12 [Example 273] | 44 nM | –
CCN(C(=O)c1cc(F)ccc1-c1cc(C2CN(C(=O)[C@H]3NC[C@@H]4CCC[C@@H]43)C2)cn2c(C)nc(F)c12)C(C)C [Example 274] | – | 19.5 nM
Cc1nc(F)c2c(-c3ccc(F)cc3C(=O)N3CCOC[C@H]3C)cc(C3CN(C[C@H]4CC[C@@H](c5cnn(C)c5)CC4)C3)cn12 [Example 276-1, (3R)-4-{5-fluoro-2-[1-fluoro-3-methyl-6-(1-{[(1s,4s)-4-(1-methyl-1H-pyrazol-4-yl)cyclohexyl]methyl}azacyclobutan-3-yl)imidazo[1,5-a]pyridin-8yl]benzoyl}-3-methylmorpholine] | 15 nM | –
Cc1nc(F)c2c(-c3ccc(F)cc3C(=O)N3CCOC[C@H]3C)cc(C3CN(C[C@H]4CC[C@H](c5cnn(C)c5)CC4)C3)cn12 [Example 276-2, (3R)-4-{5-fluoro-2-[1-fluoro-3-methyl-6-(1-{[(1r,4r)-4-(1-methyl-1H-pyrazol-4-yl)cyclohexyl]methyl}azacyclobutan-3-yl)imidazo[1,5-a]pyridin-8yl]benzoyl}-3-methylmorpholine] | 7 nM | –
CCC(C1CCN(C(C)=O)CC1)N1CC(c2cc(-c3ccc(F)cc3C(=O)N3CCOC[C@H]3C)c3c(F)nc(C)n3c2)C1 (stereo partly drawn) [Example 280, 1-(4-{1-[3-(1-fluoro-8-{4-fluoro-2-[(3R)-3-methylmorpholin-4-carbonyl]phenyl}-3-methylimidazo[1,5-a]pyridin-6-yl)azacyclobutan-1-yl]propyl}piperidin-1-yl)ethan-1-one] | 19.5 nM | –
CC[C@H](C1CCN(C(C)=O)CC1)N1CC(c2cc(-c3ccc(F)cc3C(=O)N3CCOC[C@H]3C)c3c(F)nc(C)n3c2)C1 [Example 280-2, 1-{4-[(1R)-1-[3-(1-fluoro-8-{4-fluoro-2-[(3R)-3-methylmorpholin-4-carbonyl]phenyl}-3-methylimidazo[1,5-a]pyridin-6-yl)azacyclobutan-1-yl]propyl]piperidin-1-yl}ethan-1-one] | 160 nM | –
CCN(C(=O)c1cc(F)ccc1-c1cc(C2CN([C@@H](C)C3CCN(C(C)=O)CC3)C2)cn2c(C)ncc12)C(C)C [Example 281-1] | 9 nM | –
CCN(C(=O)c1cc(F)ccc1-c1cc(C2CN([C@H](C)C3CCN(C(C)=O)CC3)C2)cn2c(C)ncc12)C(C)C [Example 281-2] | 79 nM | –
CCN(C(=O)c1cc(F)ccc1-c1cc(C2CN(C(C)C3CCN(C(C)=O)CC3)C2)cn2c(C)ncc12)C(C)C (centres unmarked) [Example 281] | 7 nM | –
CCNC(=O)N1CCC([C@@H](C)N2CC(c3cc(-c4ccc(F)cc4C(=O)N(CC)C(C)C)c4c(F)nc(C)n4c3)C2)CC1 [Example 282-1, N-ethyl-4-[(1R)-1-[3-(8-{2-[ethyl(isopropyl)aminoformyl]-4-fluorophenyl}-1-fluoro-3-methylimidazo[1,5-a]pyridin-6-yl)azacyclobutan-1-yl]ethyl]piperidin-1-formamide] | 9 nM | –
CCNC(=O)N1CCC([C@H](C)N2CC(c3cc(-c4ccc(F)cc4C(=O)N(CC)C(C)C)c4c(F)nc(C)n4c3)C2)CC1 [Example 282-2, N-ethyl-4-[(1S)-1-[3-(8-{2-[ethyl(isopropyl)aminoformyl]-4-fluorophenyl}-1-fluoro-3-methylimidazo[1,5-a]pyridin-6-yl)azacyclobutan-1-yl]ethyl]piperidin-1-formamide] | 1 nM | –

SMILES | IC50 [1] | IC50 [2]
CCN(C(=O)c1cc(F)ccc1-c1cc(C2CN([C@H](C)C3CCN(C(=O)NC)CC3)C2)cn2c(C)nc(F)c12)C(C)C [Example 283-1] | 20 nM | –
CCN(C(=O)c1cc(F)ccc1-c1cc(C2CN([C@@H](C)C3CCN(C(=O)NC)CC3)C2)cn2c(C)nc(F)c12)C(C)C [Example 283-2] | 2 nM | –
CCN(C(=O)c1cc(F)ccc1-c1cc(C2CN([C@H](C)C3CCN(C(=O)CO)CC3)C2)cn2c(C)nc(F)c12)C(C)C [Example 284-1] | 39 nM | –
CCN(C(=O)c1cc(F)ccc1-c1cc(C2CN([C@H](C)C3CCN(C(C)=O)CC3)C2)cn2c(C)nc(F)c12)C(C)C [Example 288-1] | 11 nM | –
CCN(C(=O)c1cc(F)ccc1-c1cc(C2CN([C@@H](C)C3CCN(C(C)=O)CC3)C2)cn2c(C)nc(F)c12)C(C)C [Example 288-2] | 2 nM | –
CO[C@@H]1CN(CCC[C@H](C(C)C)N2CC(c3cc(-c4ccc(F)cc4C(=O)N4CCOC[C@H]4C)c4c(F)nc(C)n4c3)C2)C[C@H]1O [Example 291-1, (3R,4R)-1-[(4R)-4-[3-(1-fluoro-8-{4-fluoro-2-[(3R)-3-methylmorpholin-4-carbonyl]phenyl}-3-methylimidazo[1,5-a]pyridin-6-yl)azacyclobutan-1-yl]-5-methylhexyl]-4-methoxypyrrolidin-3-ol] | 6 nM | –
CCN(C(=O)c1cc(F)ccc1-c1cc(CC2CN([C@@H](CCCN(C)CCOC)C(C)C)C2)n2c(C)cncc12)C(C)C [Example 296-2, N-ethyl-5-fluoro-2-[6-({1-[(3S)-6-[(2-methoxyethyl)(methyl)amino]-2-methylhexan-3-yl]azacyclobutan-3-yl}methyl)-4-methylpyrrolo[1,2-a]pyrazin-8-yl]-N-(isopropyl)benzamide] | 3 nM | –
Cc1nc(F)c2c(-c3ccc(F)cc3C(=O)N3CCOC[C@H]3C)cc(C3CN([C@@H](CO[C@@H]4CCCN(C)C4)C(C)C)C3)cn12 [Example 297-2, (3R)-4-[5-fluoro-2-(1-fluoro-3-methyl-6-{1-[(2R)-3-methyl-1-{[(3R)-1-methylpiperidin-3-yl]oxy}butan-2-yl]azacyclobutan-3-yl}imidazo[1,5-a]pyridin-8yl)benzoyl]-3-methylmorpholine] | 13.5 nM | –
Cc1nc(F)c2c(-c3ccc(F)cc3C(=O)N3CCOC[C@H]3C)cc(C3CN([C@H](CO[C@@H]4CCN(C)C4)C(C)C)C3)cn12 [Example 298, (3R)-4-[5-fluoro-2-(1-fluoro-3-methyl-6-{1-[(2S)-3-methyl-1-{[(3R)-1-methylpyrrolidin-3-yl]oxy}butan-2-yl]azacyclobutan-3-yl}imidazo[1,5-a]pyridin-8yl)benzoyl]-3-methylmorpholine] | 14.5 nM | –
Cc1nc(F)c2c(-c3ccc(F)cc3C(=O)N3CCOC[C@H]3C)cc(C3CN([C@@H](C)C4CCN(C(=O)C5CC5)CC4)C3)cn12 [Example 299] | 15 nM | –
Cc1nc(F)c2c(-c3ccc(F)cc3C(=O)N3CCOC[C@H]3C)cc(C3CN([C@@H](C)C4CCN(C(=O)C(F)F)CC4)C3)cn12 [Example 300] | 24 nM | –
Cc1nc(F)c2c(-c3ccc(F)cc3C(=O)N3CCOCC3C)cc(C3CN(C(C)C4CCN(C(=O)C5CC5F)CC4)C3)cn12 (centres unmarked) [Example 301] | – | 9 nM
Cc1nc(F)c2c(-c3ccc(F)cc3C(=O)N3CCOC[C@H]3C)cc(C3CN([C@@H](C)C4CCN(C(=O)C(C)(F)F)CC4)C3)cn12 [Example 302] | 22 nM | –
Cc1nc(F)c2c(-c3ccc(F)cc3C(=O)N3CCOC[C@H]3C)cc(C3CN([C@@H](C)C4CCN(C(=O)[C@@H]5C[C@@H]5F)CC4)C3)cn12 [Example 303] | – | 5 nM
Cc1nc(F)c2c(-c3ccc(F)cc3C(=O)N3CCOC[C@H]3C)cc(C3CN([C@@H](C)C4CCN(C(=O)CC(F)F)CC4)C3)cn12 [Example 304] | 8 nM | –
CCN(C(=O)c1cc(F)ccc1-c1cc(C2CN([C@@H](CCCN(C)CCOC)C(C)C)C2)cn2c(C)nc(F)c12)C(C)C [Example 307-1, N-ethyl-5-fluoro-2-(1-fluoro-6-{1-[(3S)-6-[(2-methoxyethyl)(methyl)amino]-2-methylhexan-3-yl]azacyclobutan-3-yl}-3-methylimidazo[1,5-a]pyridin-8-yl)-N-(isopropyl)benzamide] | 14.5 nM | –
